Reference: patent publication US20250042911A1, “NOVEL BENZOPYRAN DERIVATIVE AND USE THEREOF” (SPARK BIOPHARMA, INC, priority 2021, published 2025)
Counter-ions that a name gives are not always drawn.

What follows are compounds tested on human M2 macrophages (assay: Inhibition of human M2 macrophage activity, hCCL22 in culture supernatant by ELISA). Details: Macrophage, hCCL22 inhibitory activity at 10 μM, 72 hours.
Format: cell-based
Protocol: To obtain human M2 macrophages, human monocytes (THP-1 monocyte, CD4 expression) were stabilized in a 96-well plate for 24 hours and then incubated in culture media containing 100 ng/mL phorbal 12-myristate-13-acetate (PMA; Sigma, P8139) for 24 hours to differentiate into M0 macrophages (macrophage-like phenotype). It was confirmed that differentiated M0 macrophages had reduced CD4 expression and expressed CD11b. M0 macrophages in the plate well were washed once with culture media and incubated in culture media containing 25 ng/mL hIL-4 (Peprotech, 200-04-50) and 25 ng/mL hIL-13 (Peprotech, 200-13-50) for 72 hours to differentiate into M2-like macrophages. Test compounds were diluted by concentration in M2 differentiation media and treated simultaneously during a differentiation period of 72 hours. The inhibitory effect of the test compounds on M2 macrophages was determined by measuring hCCL22 in the medium culture supernatant cultured for 72 hours using an ELISA assay (R&D system, DMD00). The results of the activity measurements are represented in Table 3 (EC50), Table 4 ([…] inhibitory activity at 5 μM) and Table 5 (hCCL22 inhibitory activity at 10 μM).

Structure (SMILES)	inhibition at 10 µM [%]
CC1(C)Oc2cc(O)ccc2C2C1=CCn1c(=O)n(-c3cccc(F)n3)c(=O)n12 (stereo not shown) [Example 12, 2-(6-fluoropyridin-2-yl)-10-hydroxy-7,7-dimethyl-5,12b-dihydro-1H,7H-chromeno[4,3-c][1,2,4]triazolo[1,2-a]pyridazine-1,3(2H)-dione]	16.8
CC(=O)c1ccc(-n2c(=O)n3n(c2=O)C2C(=CC3)C(C)(C)Oc3c2cc(Br)c(O)c3Br)cc1 (stereo not shown) [Example 10, 2-(4-acetylphenyl)-9,11-dibromo-10-hydroxy-7,7-dimethyl-5,12b-dihydro-1H,7H-chromeno[4,3-c][1,2,4]triazolo[1,2-a]pyridazine-1,3(2H)-dione]	98.4
CC(=O)Nc1ccc2c(c1)OC(C)(C)C1=CCn3c(=O)n(-c4ccc(C(C)=O)cc4)c(=O)n3C12 (stereo not shown) [Example 3, N-(2-(4-acetylphenyl)-7,7-dimethyl-1,3-dioxo-2,3,5,12b-tetrahydroxy-1H,7H-chromeno[4,3-c][1,2,4]triazolo[1,2-a]pyridazin-10-yl)acetamide]	16.9
CC(=O)c1ccc(-n2c(=O)n3n(c2=O)C2C(=CC3)C(C)(C)Oc3cc(N)ccc32)cc1 (stereo not shown) [Example 7, 2-(4-acetylphenyl)-10-amino-7,7-dimethyl-5,12b-dihydro-1H,7H-chromeno[4,3-c][1,2,4]triazolo[1,2-a]pyridazine-1,3(2H)-dione]	83.4
CC(=O)c1ccc(-n2c(=O)n3n(c2=O)C2C(=CC3)C(C)(C)Oc3cc(N4CCC4)ccc32)cc1 (stereo not shown) [Example 141, 2-(4-acetylphenyl)-10-(azetidin-1-yl)-7,7-dimethyl-5,12b-dihydro-1H,7H-chromeno[4,3-c][1,2,4]triazolo[1,2-a]pyridazine-1,3(2H)-dione]	94.2
CC(=O)c1ccc(-n2c(=O)n3n(c2=O)C2C(=CC3)C(C)(C)Oc3cc(N4CCOCC4)ccc32)cc1 (stereo not shown) [Example 8, 2-(4-acetylphenyl)-7,7-dimethyl-10-morpholino-5,12b-dihydro-1H,7H-chromeno[4,3-c][1,2,4]triazolo[1,2-a]pyridazine-1,3(2H)-dione]	60.7
CC(=O)c1ccc(-n2c(=O)n3n(c2=O)C2C(=CC3)C(C)(C)Oc3c2cc(Cl)c(N)c3Cl)cc1 (stereo not shown) [Example 31, 2-(4-acetylphenyl)-10-amino-9,11-dichloro-7,7-dimethyl-5,12b-dihydro-1H,7H-chromeno[4,3-c][1,2,4]triazolo[1,2-a]pyridazine-1,3(2H)-dione]	97.2
CC(=O)c1ccc(-n2c(=O)n3n(c2=O)C2C(=CC3)C(C)(C)Oc3cc(S(C)(=O)=O)ccc32)cc1 (stereo not shown) [Example 4, 2-(4-acetylphenyl)-7,7-dimethyl-10-(methylsulfonyl)-5,12b-dihydro-1H,7H-chromeno[4,3-c][1,2,4]triazolo[1,2-a]pyridazine-1,3(2H)-dione]	51.9

Same assay, conditions: Macrophage, hML22 inhibitory activity at 5 μM, 72 hours

Structure (SMILES)	inhibition at 5 µM [%]
CC(=O)c1ccc(-n2c(=O)n3n(c2=O)C2C(=CC3)C(C)(C)Oc3c2cc(F)c(O)c3F)cc1 (stereo not shown) [Example 27, 2-(4-acetylphenyl)-9,11-difluoro-10-hydroxy-7,7-dimethyl-5,12b-dihydro-1H,7H-chromeno[4,3-c][1,2,4]triazolo[1,2-a]pyridazine-1,3(2H)-dione]	29.9

Same assay, conditions: hCCL22 secretion, THP-1 derived M2-like macrophages, compound present during 72 hours of differentiation

EC50 [µM]	Structure (SMILES)
25.6	CN1CCN(c2ccc3c(c2)OC(C)(C)C2=CCn4c(=O)n(-c5ccc(F)cc5)c(=O)n4C23)CC1 (stereo not shown) [Example 50, 2-(4-fluorophenyl)-7,7-dimethyl-10-(4-methylpiperazin-1-yl)-5,12b-dihydro-1H,7H-chromeno[4,3-c][1,2,4]triazolo[1,2-a]pyridazine-1,3(2H)-dione]
4.5	CC(=O)c1ccc(-n2c(=O)n3n(c2=O)C2C(=CC3)C(C)(C)Oc3cc(N)ccc32)cc1 (stereo not shown) [Example 7, 2-(4-acetylphenyl)-10-amino-7,7-dimethyl-5,12b-dihydro-1H,7H-chromeno[4,3-c][1,2,4]triazolo[1,2-a]pyridazine-1,3(2H)-dione]
7.2	CC(=O)c1ccc(-n2c(=O)n3n(c2=O)C2C(=CC3)C(C)(C)Oc3cc(N4CCC4)ccc32)cc1 (stereo not shown) [Example 141, 2-(4-acetylphenyl)-10-(azetidin-1-yl)-7,7-dimethyl-5,12b-dihydro-1H,7H-chromeno[4,3-c][1,2,4]triazolo[1,2-a]pyridazine-1,3(2H)-dione]
73.1	CC(=O)c1ccc(-n2c(=O)n3n(c2=O)C2C(=CC3)C(C)(C)Oc3cc(-c4nc(C)sc4C)ccc32)cc1 (stereo not shown) [Example 39, 2-(4-acetylphenyl)-10-(2,5-dimethylthiazol-4-yl)-7,7-dimethyl-5,12b-dihydro-1H,7H-chromeno[4,3-c][1,2,4]triazolo[1,2-a]pyridazine-1,3(2H)-dione]
2	CC(=O)c1ccc(-n2c(=O)n3n(c2=O)C2C(=CC3)C(C)(C)Oc3c2cc(Cl)c(N)c3Cl)cc1 (stereo not shown) [Example 31, 2-(4-acetylphenyl)-10-amino-9,11-dichloro-7,7-dimethyl-5,12b-dihydro-1H,7H-chromeno[4,3-c][1,2,4]triazolo[1,2-a]pyridazine-1,3(2H)-dione]
9.7	CN1CCN(c2ccc3c(c2)OC(C)(C)C2=CCn4c(=O)n(-c5ccc(C(C)(C)C)cc5)c(=O)n4C23)CC1 (stereo not shown) [Example 48, 2-(4-(tert-butyl)phenyl)-7,7-dimethyl-10-(4-methylpiperazin-1-yl)-5,12b-dihydro-1H,7H-chromeno[4,3-c][1,2,4]triazolo[1,2-a]pyridazine-1,3(2H)-dione]
4.5	CC1(C)Oc2cc(O)ccc2C2C1=CCn1c(=O)n(-c3ccc(C(=O)N4CCOCC4)cc3)c(=O)n12 (stereo not shown) [Example 53, 10-hydroxy-7,7-dimethyl-2-(4-(morpholine-4-carbonyl)phenyl)-5,12b-dihydro-1H,7H-chromeno[4,3-c][1,2,4]triazolo[1,2-a]pyridazine-1,3(2H)-dione]

Structure (SMILES)	EC50 [µM]
CC1(C)Oc2cc(OP(=O)(O)O)ccc2C2C1=CCn1c(=O)n(-c3ccc(C(C)(C)C)cc3)c(=O)n12 (stereo not shown) [Example 144, 2-(4-(tert-butyl)phenyl)-7,7-dimethyl-1,3-dioxo-2,3,5,12b-tetrahydro-1H,7H-chromeno[4,3-c][1,2,4]triazolo[1,2-a]pyridazin-10-yl dihydrogen phosphate]	5.4
CC(=O)c1ccc(-n2c(=O)n3n(c2=O)C2C(=CC3)C(C)(C)Oc3cc(OCP(=O)(O)O)ccc32)cc1 (stereo not shown) [Example 115, disodium (((2-(4-acetylphenyl)-7,7-dimethyl-1,3-dioxo-2,3,5,12b-tetrahydro-1H,7H-chromeno[4,3-c][1,2,4]triazolo[1,2-a]pyridazin-10-yl)oxy)methyl)phosphonate]	> 80
CC(=O)c1ccc(-n2c(=O)n3n(c2=O)C2C(=CC3)C(C)(C)Oc3cc(OC(=O)N4CCN(C(=O)CN(C)C)CC4)ccc32)cc1 (stereo not shown) [Example 99, 2-(4-acetylphenyl)-7,7-dimethyl-1,3-dioxo-2,3,5,12b-tetrahydro-1H,7H-chromeno[4,3-c][1,2,4]triazolo[1,2-a]pyridazin-10-yl 4-(dimethylglycyl)piperazine-1-carboxylate hydrochloride]	32
CC1(C)Oc2cc(OP(=O)(O)O)ccc2C2C1=CCn1c(=O)n(-c3ccc(F)cc3)c(=O)n12 (stereo not shown) [Example 143, 2-(4-fluorophenyl)-7,7-dimethyl-1,3-dioxo-2,3,5,12b-tetrahydro-1H,7H-chromeno[4,3-c][1,2,4]triazolo[1,2-a]pyridazin-10-yl dihydrogen phosphate]	9.4
CN(C)C(=O)Oc1ccc2c(c1)OC(C)(C)C1=CCn3c(=O)n(-c4ccc(F)cc4)c(=O)n3C12 (stereo not shown) [Example 146, 2-(4-fluorophenyl)-7,7-dimethyl-1,3-dioxo-2,3,5,12b-tetrahydro-1H,7H-chromeno[4,3-c][1,2,4]triazolo[1,2-a]pyridazin-10-yl dimethylcarbamate]	> 80
CC(=O)c1ccc(-n2c(=O)n3n(c2=O)C2C(=CC3)C(C)(C)Oc3cc(OC(=O)N[C@@H](CCCNC(=N)N)C(=O)O)ccc32)cc1 (stereo partly drawn) [Example 78, (((2-(4-acetylphenyl)-7,7-dimethyl-1,3-dioxo-2,3,5,12b-tetrahydro-1H,7H-chromeno[4,3-c][1,2,4]triazolo[1,2-a]pyridazin-10-yl)oxy)carbonyl)-L-arginine 2,2,2-trifluoroacetic acid]	5.2
